These results are taken from patent US8012994B1 (priority 2006, dated 2011).

Common to all, as to type: in vivo, human
Data set [1] has as its system sensorineural hearing loss caused by hyperbilirubinemia. Description: Treatment for sensorineural hearing loss caused by hyperbilirubinemia. The method, then:
Research was conducted on four patients (age 2 to 5 years) who had hyperbilirubinemia soon after birth. The hearing impairment was diagnosed when the children were examined and treated for hyperkinetic cerebral palsy. The children were not able to walk.
After the treatment, their hearing improved by 10-15 dB.

In data set [2] the test system is sensorineural hearing loss caused by birth injury. Description: Treatment for sensorineural hearing loss caused by birth injury. The method, then: Research was conducted with 4 patients whose hearing loss was caused by birth injury. Two patients were twin boys […] and two patients […].
The twins had sensorineural hearing loss in both ears. […] The course was repeated in 1.5 months, and the third course was conducted in 3 months.
Treatment was then conducted according to the following pattern.
The courses were repeated every three months for three years. They received 8 and 10 courses respectively.

The test system of data set [3] is hearing loss caused by toxoplasmosis. The data set is described as follows: Treatment for neuropathy of CN VIII: hearing loss caused by toxoplasmosis. To be noted: patient. The method, then:
This research involved observation of neuropathy in the vestibulocochlear nerve of 17 patients.
In two patients, the hearing loss was caused by toxoplasmosis. In one patient, inborn toxoplasmosis was diagnosed. The other patient developed toxoplasmosis from an infected cat.
The second course was conducted in three months. After four courses of treatment, their hearing improved by 25 dB.
After 5 courses of treatment, their hearing improved by 30 dB.

Data set [4] has as its system sensorineural hearing loss caused by Usher syndrome. Description: Treatment for sensorineural hearing loss caused by Usher syndrome. The method, then: A group of 4 children of 5-6 years old with Usher's syndrome were studied. They manifested profound hearing impairment of 65-75 dB alongside progressive loss of vision due to retinitis pigmentosa. These children had been previously refused treatment on the account of their disease being genetic.
In 1.5 months there was an improvement in hearing by 5 dB. […] The third course was conducted in three months according to the same pattern. After that the hearing improved by 10-15 dB.
PIRIBEDIL® is a vasodilative drug used for treating vision and hearing disorders. Applicant observed that the hearing was improved by 5-10 dB. The patients were recommended to have a follow up treatment every 6 months according to the same pattern.

For data set [5], the system named is neurinomas of cerebellopontine angle. Description: Treatment for neurinomas of cerebellopontine angle. The text has this:
Neurinomas of the cerebropontine angle—7 patients (2 patients and 5 people from 35 to 45 years of age).
In all 7 patients, the tumor was diagnosed late and was of a considerable size. In spite of the fact that all of them had consulted doctors, they were correctly diagnosed only after the appearance of the symptoms of damage to the facial nerve, ataxy, and complete hearing loss. Some of the patients underwent neurosurgery, including partial removal of the tumor followed by chemo- and radio-therapy. The patients manifested paralysis of the facial nerve, optic atrophy, and tinnitus, dizziness and paresis or hemisyndrom of different degrees.
After the operations, some of the patients had severe complications. […] Disorders of differentiation of words, especially in noisy environments. Some patients manifested convulsions and severe headaches. The encephalogram registered readiness for convulsions. Such patients initially underwent anticonvulsant therapy with CARBAMAZEPINE® 100 mg two times a day.
The course of treatment was repeated every 3-6 months. […] The patients started to differentiate shapes of objects, which helped them to orient in the surroundings and to come to the clinic without a guide.

The test system of the next data set is meningiomas. The data set is described as follows: Treatment of patients with meningiomas. The note with it: 1.25 mg once a day, three courses. Here is the method: Applicant observed two patients with meningiomas. Their tumors were of a considerable size. These patients had undergone surgery, which was conducted in two stages, and was followed by chemo- and radiation therapy. These patients were practically blind, and had bilateral optic atrophy, their hearing function was impaired by 30-40 dB, they were not able to differentiate words in noisy environments. They also manifested convulsive attacks up to 15 times a day. They went through the anticonvulsant therapy, after which their convulsions occurred only for 2 times a month. […] In a month and a half, the treatment was conducted according to the following pattern. 1.25 mg once a day for 7 days, followed by a 5 day break. […] This course was repeated in 3 months. The third course was conducted in 6 months. […] These improvements satisfied the patients and no further treatment was conducted.

The subject of another data set is minimal hearing loss. The data set is described as follows: Treatment for minimal hearing loss. From the text: A group of patients consisting of 56 children was selected. 29 children—4 years of age and 27 children—5-6 years of age.
Minimal hearing disorders were discovered when these children were investigated for speech development delay.
The course of treatment was repeated in three months. Depending on the degree of the impairment and its cause, the patients received from 3 to 8 courses of treatment.

Data set [6] has as its system sensorineural hearing loss of vascular genesis. Description: Treatment for sensorineural hearing loss of vascular genesis. Here is the method:
A group of 24 patients at the age of 50-65 were treated for sensorineural hearing loss. […] After a 7-10 days break, the course was repeated. […] The hearing in one ear improved by 5-10 dB.
So the second intake of the drug at night was withdrawn. […] After that, they refused to continue the treatment for the lack of desired effect.
Three courses of treatment were conducted. […] Then, the patients terminated the treatment because of its high cost.

In data set [7] the test system is blind mute and deaf children. The data set is described as follows: galanthamine hydrobromide injections in blind mute and deaf children. The note with it: one of 3 patients, 7-9 years old; 0.1 ml of 0.5% solution per year of life, 15-20 injections. The method, then:
25 years ago, applicant conducted a study of a small group of blind mute and deaf children (3 patients) at the age of 7-9 years old. There was an attempt to restore their visual function using galanthamine hydrobromide solution at the dosage of 0.1 ml of 0.5% of galanthamine hydrobromide for each year of life. The course of treatment included 15-20 injections. […] This finding gave an impetus to conduct additional research into the restoration of auditory function using acetylholinesterase inhibitors in conjunction with laser stimulation.

Setting [8] is: after three courses, 0.625 mg once a day during 25 days.
The mark [9] stands for this setting: twin boys, three courses, 2.5 mg twice a day for 20 days.
Where [10] appears, read: 7 patients, courses repeated every 3-6 months.
Setting [11] is: 18 patients, 2.5 mg a day with vasodilating treatment, three courses.

Counter-ions that a name gives are not always drawn.

In the case of `COc1cc2c(cc1OC)C(=O)C(CC1CCN(Cc3ccccc3)CC1)C2` (stereo not drawn) [ARICEPT®, donepezil hydrochloride], the concentration result in data set [1] (setting [8]) is “concentration improved”. Moreover, in data set [1] (setting [8]), the hyperkinesias result was “some decrease of hyperkinesias”. Besides, the hearing result in data set [1] (four patients 2-5 years, after three courses, 0.625 mg once a day during 25 days) is given as “no improvement in hearing”; with meningiomas (2 patients, hearing impaired by 30-40 dB) it was “improvement of hearing”; in [6] (6 patients, night intake withdrawn, after the fourth course) it was “slight improvement of hearing”; in [6] (setting [11]), “improved hearing in one ear”. Besides, in [1] (patient with profound hearing loss, after ten courses), the hyperkinesia and walking result was “Hyperkinesia decreased and the patient began to walk”. The compound also displayed a hearing threshold in [1] (patient, threshold over 95 dB before, after ten courses) of 90 dB. Moreover, the “hearing improved by” value is 10-15 dB in data set [1] (two children, 10 courses, 0.625 mg twice a day for 25 days, three months break); 10 dB in data set [2] (person, sensorineural hearing loss of 65 dB, 2.5 mg once a day for twenty days, 10 courses over three years); 25 dB in [3] (0.625 mg once a day during 20 days, after four courses); 30 dB in [3] (2.5 mg once a day for 20 days, after 5 courses); 10-15 dB in data set [4] (after the third course, 1.25 mg two times a day); 5-10 dB in [4] (two patients, after six months, with PIRIBEDIL 5 mg two times a day). Besides, the “hearing improved by” value with minimal hearing loss (children with sensorineural hearing loss, 1.25 mg once a day during 20 days, 3 to 8 courses) is listed as 5-10 dB. Besides, the “hearing improved by, in one ear” value in data set [2] (each twin, further three courses 2.5 mg twice a day for 25 days, with PERIBEDIL 10 mg twice a day from the 4th course) is reported as 20-25 dB; in data set [2] (twin boys of 10 years, three courses, 2.5 mg twice a day for 20 days, hydrochloride), 10 dB. Also, the fatiguability result in data set [2] (setting [9]) was “decreased fatiguability”. Moreover, the speech result is reported as “speech became more understandable” in [2] (setting [9]) and “increased legibility of speech” in the data set on meningiomas (2 patients, with anticonvulsant therapy). For the same compound, the improvement in hearing in data set [4] (4 children 5-6 years, loss 65-75 dB, 1.25 mg 2 times a day for 20 days, in 1.5 months) is reported as 5 dB. Further, the visual function entry in data set [4] (after the third course) is “improved visual function”; in [5] (setting [10]), “improvement in their visual function”. For the same compound, the tinnitus result in data set [5] (setting [10]) was “decrease of tinnitus”; in data set [6] (18 of 24 patients 50-65 years, after the first course, 2.5 mg twice a day during 25 days), “decrease of tinnitus”. In addition, the “effect of further courses” value in data set [5] (after 5-6 courses of treatment) is given as “no further improvement”. The side effects entry in data set [5] (dosage increased to 5 mg twice a day, with anticonvulsant therapy) is “headaches and sleep disturbances”; in data set [5] (dosage of 2.5 mg a day) it was “didn't produce side effects”; in data set [6] (6 patients, 2.5 mg twice a day) it was “irritability and sleep disturbances”. Moreover, the vision result in the data set on meningiomas (2 practically blind patients) is “clear differentiation of the source of light”. The higher psychic functions result with minimal hearing loss (56 children 4-6 years) is given as “improvement of higher psychic functions”. In addition, in the data set with minimal hearing loss (56 children 4-6 years, 1.25 mg once a day during 20 days), the “most noticeable improvement of phonemic hearing and speech functions observed” value is “between the 3d and the 5th courses”. Besides, the “children who manifested the increase in the intellect” value in the data set on minimal hearing loss (starting from the 4th course, preliminary results) came out at 85%. For the same compound, the dizziness entry in data set [6] (setting [11]) is reported as “decrease of dizziness”. In data set [6] (after the first course, 2.5 mg twice a day during 25 days), the “hearing in one ear improved by” value is listed as 5-10 dB.

On to `COc1ccc2c3c1O[C@H]1C[C@@H](O)C=C[C@@]31CCN(C)C2` [galanthamine hydrobromide], for which, in [7], the auditory function entry is given as “minor improvement of auditory function”.
